Data reported in publication PMC11882969 (Nature Communications, 2025).
“And” between values parts separate entries of the source, which are not always exact repeats. Equal values may be shown once.

Legend:
[1] = target: T1, hCB1 (Homo sapiens, UniProt P21554); experiment: bioSensAll ebBRET signaling profiling, hCB1; type: cell-based; set-up: host or cells: HEK293SL cells, transient PEI transfection; details: for RE, relative efficacy: vs CP-55,940; for EC50: read-out: EC50 [95% CI]; for Emax: normalized to CP-55,940
[2] = target: T1, hCB1; experiment: Lance Ultra cAMP accumulation assay, CHO cells; type: cell-based; set-up: expressed in transfected cells;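 also: human CB1R stably expressed in CHO cells, ligands co-incubated with forskolin at room temperature, read-out is lowering of forskolin-stimulated cAMP accumulation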

T1 sequence (P21554 whole entry): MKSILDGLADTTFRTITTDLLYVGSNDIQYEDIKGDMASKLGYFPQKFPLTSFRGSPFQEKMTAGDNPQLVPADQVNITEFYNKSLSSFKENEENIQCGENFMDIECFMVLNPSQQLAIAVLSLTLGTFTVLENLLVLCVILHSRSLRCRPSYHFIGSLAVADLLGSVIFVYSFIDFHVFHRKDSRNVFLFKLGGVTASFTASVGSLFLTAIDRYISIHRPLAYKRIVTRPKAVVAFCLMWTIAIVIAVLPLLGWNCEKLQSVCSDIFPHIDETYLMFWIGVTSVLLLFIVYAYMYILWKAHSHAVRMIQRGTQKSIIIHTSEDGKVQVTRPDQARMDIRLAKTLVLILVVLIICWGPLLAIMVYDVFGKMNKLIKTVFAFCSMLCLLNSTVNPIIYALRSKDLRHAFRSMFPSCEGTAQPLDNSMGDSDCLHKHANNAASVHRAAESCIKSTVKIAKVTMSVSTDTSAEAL

COC(=O)C(C)(NC(=O)c1cc(C)n(-c2cccc(C(F)(F)F)c2)n1)c1cccs1 (stereo not drawn) [‘4042]
Gq hCB1 ([1]; Log [Compound] (M) -8): 1060
Gs hCB1 ([1]; Log [Compound] (M) -8): 6741
Gz hCB1 ([1]; Log [Compound] (M) -8): 97.3733 and 99.8321 and 82.6809
Barr2+GRK2 hCB1 ([1]; Log [Compound] (M) -8.22186): 47.6346 and 43.8472
G13 hCB1 ([1]; Log [Compound] (M) -8.22186): 44.4318 and 47.6121
G15 hCB1 ([1]; Log [Compound] (M) -8.22186): 112.142 and 106.076
Gi1 hCB1 ([1]; Log [Compound] (M) -8.22186): 104.327 and 106.186 and 100.167
Gi2 hCB1 ([1]; Log [Compound] (M) -8.22186): 112.022 and 97.4049
GoB hCB1 ([1]; Log [Compound] (M) -8.22186): 115.24 and 97.3514 and 98.8499
Gq hCB1 ([1]; Log [Compound] (M) -8.22186): 1073
Gs hCB1 ([1]; Log [Compound] (M) -8.22186): 6493
Gz hCB1 ([1]; Log [Compound] (M) -8.22186): 122.54 and 109.635 and 78.9413
Barr2+GRK2 hCB1 ([1]; Log [Compound] (M) -8.39794): 32.0865 and 32.6356
G15 hCB1 ([1]; Log [Compound] (M) -8.39794): 101.826 and 96.5808
Gi1 hCB1 ([1]; Log [Compound] (M) -8.39794): 93.4953 and 99.8959 and 97.0977
Gi2 hCB1 ([1]; Log [Compound] (M) -8.39794): 102.295 and 80.9389
GoB hCB1 ([1]; Log [Compound] (M) -8.39794): 81.1381 and 111.288 and 86.2389
Gq hCB1 ([1]; Log [Compound] (M) -8.39794): 1055
Gs hCB1 ([1]; Log [Compound] (M) -8.39794): 6872
Gz hCB1 ([1]; Log [Compound] (M) -8.39794): 84.7686 and 103.436 and 80.0517
G13 hCB1 ([1]; Log [Compound] (M) -8.68787): 39.593 and 30.3572
G15 hCB1 ([1]; Log [Compound] (M) -8.68787): 97.8136 and 87.6381
Gi1 hCB1 ([1]; Log [Compound] (M) -8.68787): 91.7785 and 78.2511 and 91.448
Gi2 hCB1 ([1]; Log [Compound] (M) -8.68787): 95.663 and 73.4469
GoB hCB1 ([1]; Log [Compound] (M) -8.68787): 96.3854 and 73.3436 and 84.1561
Gq hCB1 ([1]; Log [Compound] (M) -8.68787): 1066
Gs hCB1 ([1]; Log [Compound] (M) -8.68787): 6260
Gz hCB1 ([1]; Log [Compound] (M) -8.68787): 96.1128 and 114.514 and 58.5255
G13 hCB1 ([1]; Log [Compound] (M) -9.15521): 17.7531 and 19.6344
G15 hCB1 ([1]; Log [Compound] (M) -9.15521): 67.1744 and 66.4649
Gi1 hCB1 ([1]; Log [Compound] (M) -9.15521): 78.7311 and 50.1158 and 63.8224
Gi2 hCB1 ([1]; Log [Compound] (M) -9.15521): 65.4704 and 47.7485
GoB hCB1 ([1]; Log [Compound] (M) -9.15521): 59.8283 and 42.5561 and 56.6226
Gq hCB1 ([1]; Log [Compound] (M) -9.15521): 1117
Gs hCB1 ([1]; Log [Compound] (M) -9.15521): 6551
G15 hCB1 ([1]; Log [Compound] (M) -9.61989): 31.8785 and 42.2144
Gi2 hCB1 ([1]; Log [Compound] (M) -9.61989): 32.2472 and 21.8596
GoB hCB1 ([1]; Log [Compound] (M) -9.61989): 29.5611 and 20.1669 and 24.5425
Gq hCB1 ([1]; Log [Compound] (M) -9.61989): 1001
Gs hCB1 ([1]; Log [Compound] (M) -9.61989): 6299
G15 hCB1 ([1]; Log [Compound] (M) -10.0969): 15.3529 and 24.9603
GoB hCB1 ([1]; Log [Compound] (M) -10.0969): 15.2383 and 7.632 and 9.061
Gq hCB1 ([1]; Log [Compound] (M) -10.0969): 1213
Gs hCB1 ([1]; Log [Compound] (M) -10.0969): 6447
Gq hCB1 ([1]; Log [Compound] (M) -10.5529): 1076
Gs hCB1 ([1]; Log [Compound] (M) -10.5529): 6140
Gq hCB1 ([1]; Log [Compound] (M) -11.0177): 1045
Gs hCB1 ([1]; Log [Compound] (M) -11.0177): 6569
Gq hCB1 ([1]; Log [Compound] (M) -11.4949): 1094
Gs hCB1 ([1]; Log [Compound] (M) -11.4949): 6245
Gq hCB1 ([1]; Log [Compound] (M) -11.9208): 1111
Gs hCB1 ([1]; Log [Compound] (M) -11.9208): 6591
Gq hCB1 ([1]; Log [Compound] (M) -12.3979): 1117
Gs hCB1 ([1]; Log [Compound] (M) -12.3979): 6511
Gq hCB1 ([1]; Log [Compound] (M) -12.8861): 1023
Gs hCB1 ([1]; Log [Compound] (M) -12.8861): 6621
pEC50 [95% CI] ([1]; hCB1 G13): 8.69 [8.0 – 9.3]
RE, relative efficacy ([1]; hCB1 G13): 0.91
RE, relative efficacy ([1]; hCB1 G15): 0.74
pEC50 [95% CI] ([1]; hCB1 Gi1): 9.32 [9.2 – 9.4]
RE, relative efficacy ([1]; hCB1 Gi1): 0.97
pEC50 [95% CI] ([1]; hCB1 Gi2): 9.25 [9.0 – 9.5]
RE, relative efficacy ([1]; hCB1 Gi2): 1.01
pEC50 [95% CI] ([1]; hCB1 GoB): 9.20 [9.1 – 9.3]
RE, relative efficacy ([1]; hCB1 GoB): 1.04
RE, relative efficacy ([1]; hCB1 Gz): 0.62
RE, relative efficacy ([1]; hCB1 ßarr2+GRK2): 0.81
EC50 ([1]; hCB1 Barr2 + GRK2): 3.6 nM
EC50 ([1]; hCB1 G13): 2.1 nM
EC50 ([1]; hCB1 G15): 0.37 nM
EC50 ([1]; hCB1 GoB): 0.64 nM
EC50 ([1]; hCB1 Gz): 0.43 nM
Emax ([1]; read-out: Emax [95% CI], hCB1 Barr2 + GRK2): 72%
Emax ([1]; read-out: Emax [95% CI], hCB1 G13): 64%
Emax ([1]; read-out: Emax [95% CI], hCB1 G15): 105%
Emax ([1]; read-out: Emax [95% CI], hCB1 Gi2): 101%
Emax ([1]; read-out: Emax [95% CI], hCB1 GoB): 103%
Emax ([1]; read-out: Emax [95% CI], hCB1 Gz): 97%
EC50 [2]: 3.3 nM
Lance Ultra cAMP pEC50 [2]: 8.5 [8.3 – 8.7]
Emax ([2]; CHO): 78%
